One molecule from patent publication US11813275B2, “Pharmaceutical composition, methods for treating and uses thereof” (Boehringer Ingelheim International GmbH, priority 2013, dated 2023) can be followed below.

Data set [1] deals with aortic wall. Kind of data set: Aortic wall thickness and collagen content by sirius red staining. It counts as in vivo, Wistar rats. Conditions: STZ diabetic rats. Here is the method:
Aortic wall thickness and collagen content were also measured microscopically after sirius red staining. Aortic segments were fixed in parafomaldehyde (4%) and paraffin-embedded. Sirius red staining for vascular fibrosis was performed with paraffin-embedded samples of aortic tissue upon de-paraffination. Afterwards the nuclei were prestained with hemalum. Then samples were stained for 1 hour in 0.1% with Sirius red solution containing saturated picric acid (1.2%). Finally, tissue samples were dehydrated with 70%, 96% and 100% isopropanol and coverslipped with a solution of polymers in xylene. 60-70 measurements were made per sample, n=6-7 animals/groups.
FIGS. 16A and 16B: Microscopic determination of aortic wall thickness and collagen content by sirius red staining of aortic paraffinated sections. Quantification (FIG. 16A) and representative microscope images (FIG. 16B).

The subject of data set [2] is NADPH oxidase. Kind of data set: NADPH oxidase activity in cardiac tissue. Particulars: STZ diabetic rats, 7 weeks of treatment. It counts as in vivo, Wistar rats. As to the method:
(§1) Type I diabetes in Wistar rats (8 weeks old, 250-300 g) are induced by a single i.v. injection of STZ (60 mg/kg). The blood glucose level is measured 3 days after STZ injection (to test whether diabetes was induced) and on the day of sacrifice. One week after injection empagliflozin (SGLT2-i) was administered with drinking water for additional 7 weeks (10 and 30 mg/kg/d p.o.).

Data set [3] concerns leukocyte-derived reactive oxygen species (ROS) in blood. Kind of data set: PDBu/zymosan A-stimulated chemiluminescence, oxidative burst in blood. It counts as in vivo, Wistar rats. Conditions: PDBu or zymosan A stimulation; STZ diabetic rats, 7 weeks, low (10 mg/kg) or high (30 mg/kg) dose. As to the method: as §1
FIGS. 3-9: Quantification of reactive oxygen species of (ROS) from leukocyte upon stimulation with zymosan A (ZymA). After 7 weeks of treatment, ROS production in blood is reduced either with the low or high dose of empagliflozin to level close to none diabetic animal.

Data set [4] is described as follows: Serum levels of insulin and interferon-gamma in STZ diabetic rats. It counts as in vivo, Wistar rats. Particulars: 7 weeks of treatment. As to the method: as §1
Data set [5] deals with ALDH-2. As to the kind of experiment: Liver ALDH-2 activity. It counts as in vivo, Wistar rats. Conditions: STZ diabetic rats, 7 weeks of treatment. Here is the method:
as §1

Data set [6] relates to isolated aortic rings. As to the kind of experiment: Isometric tension recordings of isolated aortic rings (vasorelaxation). It counts as in vivo, Wistar rats. Here is the method:
as §1
FIG. 2: A: Endothelial dependant vasorelaxation. […] B: Endothelial independent vasorelaxation obtain with glyceryl trinitrate (GTN) a NO donor.

In data set [7] the test system is patients with T1D. As to the kind of experiment: Blood pressure, arterial stiffness, HRV and adrenergic mediators in normotensive T1D patients under clamped euglycemia and hyperglycemia. The class given is in vivo, human. Here is the method:
Blood pressure, arterial stiffness, heart rate variability (HRV) and circulating adrenergic mediators were measured during clamped euglycemia and hyperglycemia in 40 normotensive patients with T1D. Studies were repeated after 8 weeks of empagliflozin (25 mg daily).
Augmentation index (Alx) for the radial and carotid arteries as well as a derived aortic Alx and carotid, radial and femoral pulse wave velocities (PWV) are measured for assessment of arterial stiffness using a SphygmoCor® System (AtCor Medical Inc., Itasca, Ill.).

Data set [8] has as its system STZ-induced diabetes mellitus (Type I) in rat. Kind of data set: Blood glucose and weight gain in STZ-induced type I diabetic rats. It counts as in vivo, Wistar rats. Particulars: 10 and 30 mg/kg/d p.o. in drinking water for 7 weeks. As to the method:
as §1

Data set [9] relates to superoxide formation in aortic vessels. Kind of data set: DHE staining of aortic cryosections (vascular superoxide formation). The class given is in vivo, Wistar rats. Particulars: STZ diabetic rats, 7 weeks of treatment. Here is the method: as §1

“Also recorded” adds a separate entry of the source.

For the molecule `OC[C@H]1O[C@@H](c2ccc(Cl)c(Cc3ccc(O[C@H]4CCOC4)cc3)c2)[C@H](O)[C@@H](O)[C@@H]1O` [empagliflozin, 1-chloro-4-(β-D-glucopyranos-1-yl)-2-[4-((S)-tetrahydrofuran-3-yloxy)-benzyl]-benzene], in data set [1], the aortic collagen content entry is reported as “normalized” and the aortic wall thickness entry was “normalized”. For the same molecule, in [2], the “NADPH oxidase activity in the cardiac tissue” value is “diminished”. Moreover, in data set [3], the “oxidative stress in blood / ROS production from leukocytes” value is listed as “reduced oxidative stress”. Also, the insulin level result in data set [4] (STZ diabetic rats) is listed as “restore insulin level”. Moreover, in [4] (elevation in STZ diabetic rats), the “interferon γ (marker of inflammation)” value is “highly diminished or suppressed”. Moreover, the “ALDH-2 activity (liver)” value in data set [5] is recorded as “partly restored”. In addition, the “endothelial independent vasorelaxation with GTN: effect on smooth muscle cells” value in data set [6] (isolated aortic rings after 7 weeks of treatment, glyceryl trinitrate as NO donor) was “absence of deleterious effect”. For the same molecule, in data set [6] (isolated aortic rings of STZ diabetic rats after 7 weeks of treatment), the “endothelial function (endothelial dependent vasorelaxation)” value is “normalization of endothelial function; also recorded: improvement of endothelial function”. Besides, the “carotid-radial pulse wave velocity” value in [7] (both glycemic conditions, 8 weeks of 25 mg daily, p≤0.0001) is given as “decreased significantly”. Besides, in data set [7] (clamped euglycemia, after 8 weeks of 25 mg daily, before treatment 111±9, p=0.0187), the systolic blood pressure stood at 109±9 mmHg. Moreover, the “augmentation index, aortic (derived)” value in [7] (clamped euglycemia, after 8 weeks of 25 mg daily, before treatment +0.1±13.4, p<0.0001) is −6.2±14.3%. Moreover, the “augmentation index, carotid” value in data set [7] (clamped euglycemia, after 8 weeks of 25 mg daily, before treatment +1.3±17.0, p<0.0001) was −5.7±17.0%. In addition, the “augmentation index, radial” value in data set [7] (clamped euglycemia, after 8 weeks of 25 mg daily, before treatment −52±16, p<0.0001) is −57±17%. Moreover, the blood pressure effects result in [7] (clamped hyperglycemia, 8 weeks of 25 mg daily) was “not significant”. Further, the “carotid-femoral pulse wave velocity” value in [7] (clamped hyperglycemia, after 8 weeks of 25 mg daily, before treatment 5.7±1.1, p=0.0017) is recorded as 5.2±0.9 m/s. Moreover, the “arterial stiffness (overall conclusion)” value in data set [7] (patients with uncomplicated T1D, 8 weeks of 25 mg daily) was “reduces arterial stiffness”. Besides, in [8], the blood glucose levels result was “distinct reduction”. Also, the “oxidative stress / superoxide formation in aortic vessels” value in data set [9] is on record as “reduced oxidative stress”.
